Laboratory results as given in US20260356860A1, “2-SUBSTITUTED 3,4A,5,7,8,8A-HEXAHYDRO-4H-THIOPYRANO[4,3-DJPYRIMIDIN-4-ONES FOR WOUND TREATMENT” (priority 2022, published 2026).

Assays:
Assay in all cases: Bacteriostasis, log reduction
Type in all cases: cell-based
[1] = test system: A. baumannii (derived from ATCC ® 19606 ™); conditions: A. baumannii ATCC 19606
Protocol: (§1) In order to assess the log reduction capabilities of compounds of Formula (1), testing was performed on organisms that are found in acute and chronic wounds. Triplicate tubes were prepared for each bacteria using 50 μL of inoculum (about 1×10^6 CFU/mL) which was added to 450 μL of compound solution (compound of Formula (I)) (or 100 μL of inoculum in 900 μL of compound solution), resulting in a final inoculum of about 1×10^5 CFU/mL, as shown in Table 4.
(§2) Tubes were mixed with a vortex and then incubated in a shaking incubator at 175 RPM and 35° C. to 37° C.
(§3) Positive control in Tables 5a and 5b was 1 mL of 0.89% saline with 1 mL of the 1×10^6 CFU/mL of the organism.
(§4) For Compounds 1, 7, 8, 10, and 18 in Tables 6, 7-A, 7-B, 8, 9, 10-A, 10-B, and 11: The compound solutions were prepared with compound (30 mg), polysorbate 20 (1.6 mL), butylene glycol (1.6 mL), phosphatidyl choline (0.66 g), ethanol (1.6 mL), hydroxypropyl cellulose (0.26 g), and ultra pure water (24.9 mL).
(§5) XAV939 Control in Table X1 was XAV939 (30 mg), polysorbate 20 (1.6 mL), butylene glycol (1.6 mL), phosphatidyl choline (0.66 g), ethanol (1.6 mL), ultra pure water (24.9 mL), and hydroxypropyl cellulose (0.26 g).
(§6) GO-HA Control in Table X2 was GO-HA (30 mg), polysorbate 20 (1.6 mL), butylene glycol (1.6 mL), phosphatidyl choline (0.66 g), ethanol (1.6 mL), ultra pure water (24.9 mL), and hydroxypropyl cellulose (0.26 g).
(§7) For Compound 18+GO-HA in Tables 6 and X4: compound 18 (45 mg), GO-HA (45 mg), polysorbate 20 (2 mL), butylene glycol (2 mL), phosphotidyl choline (0.5 g), ethanol (2 mL), hydroxypropyl cellulose (0.40 g), and ultra pure water (40 mL).
(§8) For XAV939+GO-HA in Tables 6 and X3-A, and X3-B: XAV939 (45 mg), GO-HA (45 mg), butylene glycol (2 mL), polysorbate 20 (2 mL), phosphotidyl choline (0.5 g), ethanol (2 mL), hydroxypropyl cellulose (0.40 g), and ultra pure water (40 mL).
(§9) Testing was performed at two time points: 18 to 24 hours, and […].

[2] = test system: E. coli (derived from ATCC ® 25922 ™); conditions: E. coli ATCC 25922
Protocol: as §1, §2, §3, §4, §5, §6, §7, §8, §9

[3] = test system: E. coli (derived from ATCC ® 8739 ™); conditions: E. coli ATCC 8739
Protocol: as §1, §2, §3, §4, §5, §6, §7, §8, §9

[4] = test system: E. faecalis (derived from ATCC ® 19433 ™); conditions: E. faecalis ATCC 19433
Protocol: as §1, §2, §3, §4, §5, §6, §7, §8, §9

[5] = test system: K. pneumoniae (derived from ATCC ® 10031 ™); conditions: K. pneumoniae ATCC 10031
Protocol: as §1, §2, §3, §4, §5, §6, §7, §8, §9

[6] = test system: P. aeruginosa (derived from ATCC ® 15442 ™); conditions: P. aeruginosa ATCC 15442
Protocol: as §1, §2, §3, §4, §5, §6, §7, §8, §9

[7] = test system: P. aeruginosa (derived from ATCC ® 9027 ™); conditions: P. aeruginosa ATCC 9027
Protocol: as §1, §2, §3, §4, §5, §6, §7, §8, §9

[8] = test system: P. vulgaris (derived from ATCC ® 8427 ™); conditions: P. vulgaris ATCC 8427
Protocol: as §1, §2, §3, §4, §5, §6, §7, §8, §9

[9] = test system: S. aureus (derived from ATCC ® 6538 ™); conditions: S. aureus ATCC 6538
Protocol: as §1, §2, §3, §4, §5, §6, §7, §8, §9

[10] = test system: S. epidermidis (derived from ATCC ® 14990 ™); conditions: S. epidermidis ATCC 14990
Protocol: as §1, §2, §3, §4, §5, §6, §7, §8, §9

[11] = test system: S. maltophilia (derived from ATCC ® 13637 ™); conditions: S. maltophilia ATCC 13637
Protocol: as §1, §2, §3, §4, §5, §6, §7, §8, §9

[12] = test system: S. pyogenes (derived from ATCC ® 19615 ™); conditions: S. pyogenes ATCC 19615
Protocol: as §1, §2, §3, §4, §5, §6, §7, §8, §9

`O=c1[nH]c(-c2ccc(B(O)O)cc2)nc2c1CSCC2` [Compound 1, (4-(4-oxo-3,5,7,8-tetrahydro-4H-thiopyrano[4,3-d]pyrimidin-2-yl)phenyl)boronic acid] was tested, and the Average result ([1]; 24 h) was under 200, the “Log Reduction” value ([1]; 24 h) was over 3.0 and the “Log Value” ([1]; 24 h) was under 2.3. For the same compound, the Average result ([1]; 72 h) was under 200, the “Log Reduction” value ([1]; 72 h) was over 3.0 and the “Log Value” ([1]; 72 h) was under 2.3. For the same compound, the Average result ([2]; 24 h) was under 200, the “Log Reduction” value ([2]; 24 h) was over 3.1 and the “Log Value” ([2]; 24 h) was under 2.3. The Average result ([2]; 72 h) was under 200, the “Log Reduction” value ([2]; 72 h) was over 3.1 and the “Log Value” ([2]; 72 h) was under 2.3. The Average result ([3]; 24 h) was 1.3 × 10^4, the “Log Reduction” value ([3]; 24 h) was 1.2 and the “Log Value” ([3]; 24 h) was 4.1. The Average result ([3]; 72 h) was under 200, the “Log Reduction” value ([3]; 72 h) was over 3.0 and the “Log Value” ([3]; 72 h) was under 2.3. For the same compound, the Average result ([4]; 24 h) was 1.1 × 10^3, the “Log Reduction” value ([4]; 24 h) was 1.8 and the “Log Value” ([4]; 24 h) was 3.0. For the same compound, the Average result ([4]; 72 h) was 1.1 × 10^4, the “Log Reduction” value ([4]; 72 h) was 0.7 and the “Log Value” ([4]; 72 h) was 4.1. The Average result ([5]; 24 h) was 1.1 × 10^3, the “Log Reduction” value ([5]; 24 h) was 1.8 and the “Log Value” ([5]; 24 h) was 3.0. For the same compound, the Average result ([5]; 72 h) was under 200, the “Log Reduction” value ([5]; 72 h) was over 2.5 and the “Log Value” ([5]; 72 h) was under 2.3. The Average result ([6]; 24 h) was under 200, the “Log Reduction” value ([6]; 24 h) was over 3.1 and the “Log Value” ([6]; 24 h) was under 2.3. The Average result ([6]; 72 h) was under 200, the “Log Reduction” value ([6]; 72 h) was over 3.1 and the “Log Value” ([6]; 72 h) was under 2.3. The Average result ([7]; 24 h) was under 200, the “Log Reduction” value ([7]; 24 h) was over 3.0 and the “Log Value” ([7]; 24 h) was under 2.3. For the same compound, the Average result ([7]; 72 h) was under 200, the “Log Reduction” value ([7]; 72 h) was over 3.0 and the “Log Value” ([7]; 72 h) was under 2.3. For the same compound, the Average result ([8]; 24 h) was under 200, the “Log Reduction” value ([8]; 24 h) was over 3.6 and the “Log Value” ([8]; 24 h) was under 2.3. The Average result ([8]; 72 h) was under 200, the “Log Reduction” value ([8]; 72 h) was over 3.6 and the “Log Value” ([8]; 72 h) was under 2.3. For the same compound, the Average result ([9]; 24 h) was 8.7 × 10^4, the “Log Reduction” value ([9]; 24 h) was 0.4 and the “Log Value” ([9]; 24 h) was 4.9. For the same compound, the Average result ([9]; 72 h) was under 800, the “Log Reduction” value ([9]; 72 h) was over 2.4 and the “Log Value” ([9]; 72 h) was under 2.9. For the same compound, the Average result ([10]; 24 h) was 3.1 × 10^5, the “Log Reduction” value ([10]; 24 h) was “No” and the “Log Value” ([10]; 24 h) was 5.5. The Average result ([10]; 72 h) was under 200, the “Log Reduction” value ([10]; 72 h) was over 2.5 and the “Log Value” ([10]; 72 h) was under 2.3. The Average result ([11]; 24 h) was under 200, the “Log Reduction” value ([11]; 24 h) was over 2.8 and the “Log Value” ([11]; 24 h) was under 2.3. For the same compound, the Average result ([11]; 72 h) was under 200, the “Log Reduction” value ([11]; 72 h) was over 2.8 and the “Log Value” ([11]; 72 h) was under 2.3. For the same compound, the Average result ([12]; 24 h) was under 200, the “Log Reduction” value ([12]; 24 h) was over 3.2 and the “Log Value” ([12]; 24 h) was under 2.3. The Average result ([12]; 72 h) was under 200, the “Log Reduction” value ([12]; 72 h) was over 3.2 and the “Log Value” ([12]; 72 h) was under 2.3.

With `O=c1[nH]c(-c2ccc(-c3ccc(B(O)O)cc3)cc2)nc2c1CSCC2` [Compound 10, (4′-(4-oxo-3,5,7,8-tetrahydro-4H-thiopyrano[4,3-d]pyrimidin-2-yl)-[1,1′-biphenyl]-4-yl)boronic acid] the Average result ([1]; 24 h) was under 200, the “Log Reduction” value ([1]; 24 h) was over 3.0 and the “Log Value” ([1]; 24 h) was under 2.3. For the same compound, the Average result ([1]; 72 h) was under 200, the “Log Reduction” value ([1]; 72 h) was over 3.0 and the “Log Value” ([1]; 72 h) was under 2.3. For the same compound, the Average result ([2]; 24 h) was under 200, the “Log Reduction” value ([2]; 24 h) was over 3.1 and the “Log Value” ([2]; 24 h) was under 2.3. The Average result ([2]; 72 h) was under 200, the “Log Reduction” value ([2]; 72 h) was over 3.1 and the “Log Value” ([2]; 72 h) was under 2.3. For the same compound, the Average result ([3]; 24 h) was under 200, the “Log Reduction” value ([3]; 24 h) was over 3.2 and the “Log Value” ([3]; 24 h) was under 2.1. The Average result ([3]; 72 h) was 6.0 × 10^2, the “Log Reduction” value ([3]; 72 h) was 2.5 and the “Log Value” ([3]; 72 h) was 2.8. The Average result ([4]; 24 h) was 2.9 × 10^4, the “Log Reduction” value ([4]; 24 h) was 0.3 and the “Log Value” ([4]; 24 h) was 4.5. The Average result ([4]; 72 h) was under 200, the “Log Reduction” value ([4]; 72 h) was over 2.5 and the “Log Value” ([4]; 72 h) was under 2.3. For the same compound, the Average result ([5]; 24 h) was under 200, the “Log Reduction” value ([5]; 24 h) was over 2.5 and the “Log Value” ([5]; 24 h) was under 2.3. The Average result ([5]; 72 h) was under 200, the “Log Reduction” value ([5]; 72 h) was over 2.5 and the “Log Value” ([5]; 72 h) was under 2.3. The Average result ([6]; 24 h) was under 200, the “Log Reduction” value ([6]; 24 h) was over 3.1 and the “Log Value” ([6]; 24 h) was under 2.3. The Average result ([6]; 72 h) was under 200, the “Log Reduction” value ([6]; 72 h) was over 3.1 and the “Log Value” ([6]; 72 h) was under 2.3. The Average result ([7]; 24 h) was under 200, the “Log Reduction” value ([7]; 24 h) was over 3.0 and the “Log Value” ([7]; 24 h) was under 2.3. For the same compound, the Average result ([7]; 72 h) was under 200, the “Log Reduction” value ([7]; 72 h) was over 3.0 and the “Log Value” ([7]; 72 h) was under 2.3. The Average result ([8]; 24 h) was under 200, the “Log Reduction” value ([8]; 24 h) was over 3.6 and the “Log Value” ([8]; 24 h) was under 2.3. The Average result ([8]; 72 h) was under 200, the “Log Reduction” value ([8]; 72 h) was over 3.6 and the “Log Value” ([8]; 72 h) was under 2.3. For the same compound, the Average result ([9]; 24 h) was 1.5 × 10^5, the “Log Reduction” value ([9]; 24 h) was 0.1 and the “Log Value” ([9]; 24 h) was 5.2. For the same compound, the Average result ([9]; 72 h) was 6.7 × 10^3, the “Log Reduction” value ([9]; 72 h) was 1.5 and the “Log Value” ([9]; 72 h) was 3.8. The Average result ([10]; 24 h) was 1.1 × 10^4, the “Log Reduction” value ([10]; 24 h) was 0.8 and the “Log Value” ([10]; 24 h) was 4.0. For the same compound, the Average result ([10]; 72 h) was 3.3 × 10^2, the “Log Reduction” value ([10]; 72 h) was 2.3 and the “Log Value” ([10]; 72 h) was 2.5. The Average result ([11]; 24 h) was under 200, the “Log Reduction” value ([11]; 24 h) was over 2.8 and the “Log Value” ([11]; 24 h) was under 2.3. The Average result ([11]; 72 h) was under 200, the “Log Reduction” value ([11]; 72 h) was over 2.8 and the “Log Value” ([11]; 72 h) was under 2.3. For the same compound, the Average result ([12]; 24 h) was under 200, the “Log Reduction” value ([12]; 24 h) was over 3.2 and the “Log Value” ([12]; 24 h) was under 2.3. For the same compound, the Average result ([12]; 72 h) was under 200, the “Log Reduction” value ([12]; 72 h) was over 3.2 and the “Log Value” ([12]; 72 h) was under 2.3.
